Experimental data published in patent US20130053435A1, “Methods of Treating Alcohol Intoxication, Alcohol Use Disorders and Alcohol Abuse Which Comprises the Administration of Dihydromyricetin” (priority 2011, published 2013).
Where two headings read alike, the source gives them in different places.

Assays:
[1] = system: benzodiazepine site of GABAARs; experiment: [3H]flunitrazepam binding in rat cortical membrane homogenates; conditions: comparative experiments
Experimental: Standard procedures for preparation of rat cortical membranes for radioligand binding assays were conducted as previously described with modifications in speed and number of centrifugation and washes, and buffer compositions. […] Naïve rat cortex was dissected from brain and homogenized in 0.32 M sucrose, 10 mM HEPES buffer (pH 7.4), and centrifuged at 650×g, 4° C. The subsequent supernatant was centrifuged at 150,000×g to collect the desired membrane-containing pellet. The pellet was washed and centrifuged two more times, first using ice-cold water and second using membrane buffer containing 50 mM KH2PO4, 1 mM EDTA, 2 mM benzamidine HCl, 0.5 mM DTT, 0.1 mM benzethonium HCl, 0.01% bacitracin, 0.2 PMSF (pH 7.4), and the resulting pellet was frozen. On the day of binding assay, the pellet was homogenized in assay buffer containing 50 mM KH2PO4, 1 mM EDTA, 200 mM KCl (pH 7.4) and centrifuged, and resuspended in fresh assay buffer to a final protein concentration of 1 mg/ml. […] Specific binding was defined as the total amount bound (zero unlabeled ligand) minus the binding in the presence of 10 μM final concentration flurazepam (Sigma). Data was analyzed with GraphPad Prism 4.0 Software (San Diego, Calif.) to determine IC50 (One-site competition equation) and Hill slope (Sigmoidal Dose-Response equation). Experiments were conducted in triplicate.

GABAARs [2] = system: T1, GABAARs; experiment: Whole-cell patch-clamp, DGCs in hippocampal slices, acute drug application; assay type: cell-based, rat; conditions: comparative experiments, rat hippocampal slices
T1 construct: DHM-enhanced Itonic; EC50 on GABAAR-mediated Itonic; other: control (vehicle) cultured neurons, DIV14; other: cultured neurons with EtOH exposure/withdrawal (60 mM, 30 min, 24 hr); EtOH-potentiated Itonic; GABAAR-mediated Ito
Experimental: (§1) Transverse slices (400 μm) of dorsal hippocampus were obtained with a Vibratome (VT 100, Technical Products International, St. Louis, Mo.) and standard techniques known in the art. Slices were continuously perfused with artificial cerebrospinal fluid (ACSF).
(§2) Signals were recorded in voltage-clamp mode with a […] amplifier (Molecular Devices, Sunnyvale, Calif.). Whole cell access resistances were in the range of <25 MΩ before electrical compensation by about 70%. During voltage-clamp recordings, access resistance was monitored by measuring the size of the capacitative transient in response to a 5 mV step command and the data were abandoned if changes >20% were encountered. At least 10 min was allowed for equilibration of the pipette solution with the intracellular milieu before commencing mIPSC recordings.
(§3) Data were analyzed using the Clampfit (Version 9.0, Molecular Devices) and the MiniAnalysis Program (versions 6.0.7, Synaptosoft, Decatur, Ga.).
(§4) The MiniAnalysis program (Synaptosoft, Decatur, Ga.) was used to analyze mIPSCs. Itonic is the averaged baseline currents of a given recording period. Itonic amplitude was calculated as the difference between the holding currents measured before and after picrotoxin (100 μM) or bicuculline (10 μM). […] Briefly, the recordings were low-pass filtered off-line (Clampfit software) at 2 kHz. The mIPSCs were detected (Mini Analysis Program, version 6.0.7) with threshold criteria of 8 pA amplitude and 20 pA*ms charge transfer. The frequency of mIPSCs was determined from all automatically detected events in a given 100 s recording period. For kinetic analysis, only single event mIPSCs with a stable baseline, sharp rising phase (10 to 90% rise time), and exponential decay were chosen during visual inspection of the recording trace. Double and multiple peak mIPSCs were excluded. At least 100 individual mIPSC events were recorded under each experimental condition. The mIPSC kinetics was obtained from analysis of the averaged chosen single events aligned with half rise time in each cell. Decay time constants were obtained by fitting a double exponential to the falling phase of the averaged mIPSCs. Itonic magnitudes were obtained from the averaged baseline current of a given recording period. Itonic amplitude was calculated as the difference between the holding currents measured before and after the application of picrotoxin (50 μM) or bicuculline (10 μM). […] The investigator performing the recordings and mIPSC analysis was blind to the treatment (vehicle, EtOH, E+D, or D) that the rats received.
(§5) As performed previously, whole-cell patch-clamp recordings in dentate gyms granule cells (DGCs) from hippocampal slices in vitro were conducted.

GABAARs [3] = system: T2, GABAARs; experiment: as above; assay type: cell-based, rat; conditions: comparative experiments, rat hippocampal slices
T2 construct: DHM-enhanced mIPSCs; other: control (vehicle) cultured neurons, DIV14; other: cultured neurons with EtOH exposure/withdrawal (60 mM, 30 min, 24 hr); EtOH-potentiated mIPSCs; effect on post-synaptic currents (mIPSCs); other: comparative experiments, rat hippocampal slices
Experimental: as §1, §2, §3, §4, §5

GABAARs [4] = system: T3, GABAARs; experiment: as above; assay type: cell-based, rat; conditions: in the presence of 60 mM EtOH, rat hippocampal slices
T3 construct: other: in the presence of 60 mM EtOH, rat hippocampal; shift of the GABA concentration-response curve
Experimental: as §1, §2, §3, §4, §5

[5] = system: EtOH-induced LORR in rats
Experimental: See Kakihana R, et al. (1966) Science 154(756):1574-1575). Briefly, after drug injection, rats were placed in the supine position in a V-shaped support. LORR onset time was taken from the endpoint of drug injection (i.p.). LORR duration ended when the animal was able to flip over three times in 30 s. LORR assays were blindly performed. LORR durations were reported as mean (min)±SEM.
Further LORR assays were conducted as follows.
Additional pre-treatment and post-treatment experiments were also conducted.
See Hunkeler, W., et al. (1981) Nature 290:514-516.

GABAARs [6] = system: T1, GABAARs; experiment: Whole-cell patch-clamp, cultured hippocampal neurons, acute drug application; assay type: cell-based, rat; conditions: DHM 1 μM + 10 μM flumazenil
Experimental: (§6) Hippocampal neurons from embryonic day 18 rats were prepared by papain dissociation (Worthington Biochemical, Lakewood, N.J.) and cultured in neurobasal medium and B27 supplement (Invitrogen). Cultures were kept at 37° C. in a 5% CO2 humidified incubator as described previously. See Shen, Y., et al. (2011) Mol Pharmacol 79:432-442.
(§7) Hippocampal neurons from embryonic day 18 SD rats were prepared by papain dissociation (Worthington Biochemical, Lakewood, N.J.) and cultured in neurobasal medium (Invitrogen) and B27 supplement as previously reported. See Stowell J N and Craig A M (1999) Neuron 22(3):525-536. Briefly, embryos were removed from maternal rats anesthetized with isoflurane and euthanized by decapitation. Hippocampus were dissected and placed in Ca^2+- and Mg^2+-free HEPES-buffered Hank's buffered salt solution (pH 7.45). Tissues were dissociated by papain digestion followed by trituration through a Pasteur pipette and papain inhibitor treatment. Cells were pelleted and resuspended in neurobasal medium containing 2% B27 serum-free supplement, 100 U/ml penicillin, 100 μg/ml streptomycin, 0.5 mM glutamine (all from Invitrogen), and 10 μM glutamate (Sigma).
(§8) Dissociated neurons were then plated at a density of 0.3×10^5 cells/cm^2 onto 12 mm round coverslips in 24-well plates (for patch-clamp recording) and/or at a density of 0.5×10^5 cells/cm^2 in 6-well plates (for Western blot and biotinylation assays) coated with poly-D-lysine (Sigma, 50 μg/ml). Cultures were kept at 37° C. in a 5% CO2 humidified incubator. Thereafter, one third to half of the medium was replaced twice a week with neurobasal culture medium containing 2% B27 supplement, and 0.5 mM glutamine.
(§9) Control neurons were treated with corresponding vehicle as same procedure as EtOH-treated neurons. The concentration of 60 mM EtOH was selected in view of prior experiments. See Liang J et al (2007). Specifically, the concentration of 60 mM EtOH used to treat cultured neurons was chosen to match blood levels measured in adult rats after intoxication with gavage of 5 g/kg, which produced about 60 mM blood peak plasma [EtOH] lasting for about 2 to 3 hr and induced significant plasticity in GABAARs and tolerance.
(§10) Then, immediately before electrophysiological recording, cells grown on coverslips were transferred to a perfusion chamber (Warner Instruments) and visualized with an inverted microscope (TE200, Nikon). Whole-cell patch-clamp recordings were obtained from cultured neurons under voltage-clamp mode at room temperature (22-25° C.), at a holding potential of −70 mV. Cells were perfused with an extracellular solution (137 mM NaCl, 5 mM KCl, 2 mM CaCl2, 1 mM MgCl2, 20 mM glucose and 10 mM HEPES (310-320 Osm, pH adjusted to 7.40 with NaOH)). Glass pipettes were filled with the same internal solution as that in slice recordings, with an input resistance of 4-7 MΩ. GABAAR-mediated mIPSCs were recorded using the same pharmacological method as mentioned above. […] Electrical signals were amplified using a Multiclamp 200 B amplifier (Molecular Devices, USA). After establishing the whole-cell configuration, at least 10 min were allowed to elapse before the application of drug to allow the membrane patch to stabilize and exchange of ions between the recording electrode and the cytosol to occur. Data were acquired with pClamp software (Version 10.0, Molecular Devices, USA), digitized at 20 kHz (Digidata 1440A, Molecular Devices), and analyzed using the Clampfit software (Version 10.0, Molecular Devices) and the Mini Analysis Program (versions 6.0.7, Synaptosoft, Decatur, Ga.) using methods known in the art. See Hamann M, et al. (2002) Neuron 33(4):625-633; Stell B M and Mody I (2002) J Neurosci 22(10): RC223; and Liang (2007).

GABAARs [7] = system: T2, GABAARs; experiment: as above; assay type: cell-based, rat; conditions: DHM 1 μM + 10 μM flumazenil
Experimental: as §6, §7, §8, §9, §10

O=c1c(-c2ccc(O)cc2)coc2cc(O)ccc12 [daidzein]
binding to GABAARs in [3H]flunitrazepam binding assay [1]: bind GABAARs

O=c1c(-c2ccc(O)cc2)coc2cc(O[C@@H]3O[C@H](CO)[C@@H](O)[C@H](O)[C@H]3O)ccc12 [daidzin, reference compound]
binding to GABAARs in [3H]flunitrazepam binding assay [1]: bind GABAARs | effect on extrasynaptic GABAAR-mediated tonic current (Itonic) (GABAARs [2]): no effect | effect on post-synaptic currents (mIPSCs) (GABAARs [3]): significantly potentiated | block of EtOH potentiation of GABAAR-mediated Itonic and mIPSCs (GABAARs [4]): do not

CCOC(=O)c1ncn2c1CN(C)C(=O)c1cc(F)ccc1-2 [flumazenil, reference compound]
LORR duration ([5]; flumazenil 10 mg/kg + DHM 3 mg/kg + EtOH): 56.1 ± 4.6 min | LORR duration ([5]; flumazenil 10 mg/kg + DHM 10 mg/kg + EtOH): 29.3 ± 4.8 min | LORR duration ([5]; flumazenil 10 mg/kg co-injected with EtOH, no DHM): 71.1 ± 4.8 min | LORR duration ([5]; flumazenil 30 mg/kg + DHM 3 mg/kg + EtOH): 58.2 ± 3.9 min | DHM-enhanced Itonic (GABAARs [6]): 143.0±3.2% | DHM-enhanced mIPSCs (GABAARs [7]): 125.7±3.9%

O=c1c(-c2ccc(O)cc2)coc2cc(O)cc(O)c12 [genistein]
binding to GABAARs in [3H]flunitrazepam binding assay [1]: do not bind

O=c1c(O)c(-c2cc(O)c(O)c(O)c2)oc2cc(O)cc(O)c12 [myricetin]
binding to GABAARs in [3H]flunitrazepam binding assay [1]: do not bind

O=c1c(-c2ccc(O)cc2)coc2c([C@@H]3O[C@H](CO)[C@@H](O)[C@H](O)[C@H]3O)c(O)ccc12 [puerarin]
binding to GABAARs in [3H]flunitrazepam binding assay [1]: do not bind

O=c1c(O)c(-c2ccc(O)c(O)c2)oc2cc(O)cc(O)c12 [quercetin, reference compound]
binding to GABAARs in [3H]flunitrazepam binding assay [1]: do not bind | effect on extrasynaptic GABAAR-mediated tonic current (Itonic) (GABAARs [2]): no effect | effect on post-synaptic currents (mIPSCs) (GABAARs [3]): no effect | block of EtOH potentiation of GABAAR-mediated Itonic and mIPSCs (GABAARs [4]): do not
